Ten molecules from patent US20040116418A1, “Compounds and methods for inhibition of HIV and related viruses” (Medivir AB, priority 1994, published 2004) can be followed below.

What is called IC50 is the midpoint of a concentration-inhibition curve. Broadly, the inhibition is the relative decrease from the control value, in per cent. What is called % inhibition is the percentage by which the read-out fell short of the control. One may read the melting point as the temperature, or range, at which the solid turns liquid.

The target in one data set is recombinant HIV-RT (Human immunodeficiency virus type 1 group M subtype B, UniProt P04585). Kind of data set: Test I (HIVRT (rAdt)): direct inhibitory activity on HIV-RT. It is filed as biochemical. The method, then:
100 mM Tris-HCl pH 7.6, 100 mM KCl, 4 mM MgCl2, 4 mM DTT, 275 mg/ml BSA, 0.5 mg (rA)n(dT)12-18 and 0.3 mM ^3H-=dTTP (specific activity 18.000 cpm/mol). After 60 minutess of incubation 40 ml in duplicate were spotted on paper discs and washed in 5% TCA. After rinsing the paper discs in ethanol they were dried and counted in scintillation fluid.

A further data set deals with HIV virus. Kind of data set: Test A (XTT): reduction of virus-caused cytotoxicity in MT4 cells. It is filed as cell-based. Particulars: for inhibition at 0.01 µg/mL: 0.01 μg/ml; for % inhibition: Test A. The method, then:
Tests A, B, C, and D (XTT)
MT4 cells in a medium of RPMI 1640, 5% FCS, penicillin/streptomycin are adjusted to 2×10^5 cells/ml and seeded into microplates (96 wells/plate) […] cell suspension/well giving 2×10^4 cells/well. The compound to be tested is made into a 10 mg/ml mixture in DMSO and stored at −20° C. […] Further dilutions to […] are made in medium containing microplates. Fifty ml of the 400, 40, and 4 mg/ml are transferred to the cell-containing microplates with a multi-channel pipette (final concentration: 100, 10, and 1 mg/ml). Finally, […] of virus suspension is added to each well (with a repetitive “Eppendorf” multipipett). […] The plate is put into a plastic bag and incubated for six days in CO2 atmosphere.
To each well in the plate is added 50 ml of XTT ((2,3-bis[2-methoxy-4-nitro-5-sulfophenyl]-5-[(phenylamin o)carbonyl]-2H-tetrazolium hydroxide), (1 mg/ml 0.01-0.02 mM N-metyl-phenazonium methosulfate). After six hours of incubation in C02 atmosphere the plates are covered with adhesive plate sealers and gently mixed on a vortex. Optical densities are determined at a wavelength of 450 nm and a reference wavelength of 650 nm. The percent reduction of cytotoxocity caused by the virus infection is calculated as follows: [formula]
Background: Tetrazolium dyes change colour on reduction, which living cells bring about.

[1] abbreviates: Human immunodeficiency virus 1, MT4, Test A.
Where [2] appears, read: Human immunodeficiency virus 1, MT4, Test A, 100 μg/ml, read-out: % inhibition.
Setting [3] is: Human immunodeficiency virus 1, MT4.
Where [4] appears, read: headed 0.1 μg/ml (after 0.001 μg/ml).

SMILES strings stand for the structures. “And” between values parts separate entries of the source, which are not always exact repeats. Equal entries are not always repeated. Where two headings read alike, the source gives them in different places.

In the case of `O=C(Nc1ccc(Cl)cn1)N[C@@H]1C[C@@H]1c1cccc([N+](=O)[O-])c1` (racemic) [Example 21, (+,−)-N-(cis-2-(3-Nitrophenyl)-cyclopropyl)-N′-(5-chloropyrid-2-yl)-urea], the IC50 at recombinant HIV-RT (read-out: IC50 (converted)) was 0.15 µM.
Consider `O=C(Nc1ccc(Br)cn1)N[C@@H]1C[C@H]1c1c(F)cccc1F` (relative stereo) [Example 27, (1R,2S)-N-(cis-2-(2,6-Difluorophenyl)-cyclopropyl)-N′-(5-bromopyrid-2-yl)-urea], for which, on recombinant HIV-RT, the IC50 was 0.5 ng/mL and 0.6 ng/mL.
On to `CCOc1ccc(F)c(C2C[C@@H]2NC(=O)Nc2ccc(Cl)cn2)c1Cl` (some centres unmarked), for which the inhibition at 0.01 µg/mL with HIV virus (setting [1]) stood at 100%; on recombinant HIV-RT (0.01 μg/ml), 82%. The inhibition at 0.1 µg/mL with HIV virus (Human immunodeficiency virus 1, MT4, Test A, 0.1 μg/ml, read-out: % inhibition) stood at 100%; at recombinant HIV-RT (0.1 μg/ml) it was 96%. The inhibition at 1 µg/mL in the data set with HIV virus (Human immunodeficiency virus 1, MT4, Test A, 1 μg/ml) came to 87%; at recombinant HIV-RT (1 μg/ml), 99%. Besides, the inhibition at 10 µg/mL in the data set with HIV virus (Human immunodeficiency virus 1, MT4, Test A, 10 μg/ml, read-out: % inhibition) was found to be 88%. For the same molecule, in the data set on HIV virus (setting [2]), the inhibition at 100 µg/mL was 24%. The “% inhibition” value with HIV virus (100 μg/ml) was determined as 30%; on recombinant HIV-RT (0.001 μg/ml), 30%; on recombinant HIV-RT (0.01 μg/ml), 80%; on recombinant HIV-RT (1 μg/ml), 97%. Also, the inhibition at 0.001 µg/mL at recombinant HIV-RT (0.001 μg/ml) is 46%. In addition, the IC50 at recombinant HIV-RT (read-out: IC50 (converted)) is 0.00286 µM and 0.00521 µM.
With `CC(=O)c1ccc(F)c(CCNC(=O)Nc2ccc(Cl)cn2)c1O` [Example 58], at recombinant HIV-RT, the concentration for half-maximal inhibition (IC50) was 38 ng/mL.
In turn, `CC(NC(=O)Nc1ccc(Br)cn1)c1ncccc1F` (centres unmarked) [Example 10, N-(3-Fluoropyrid-2-yl)eth-2yl-N′-(5-bromopyrid-2-yl)-urea] had a melting point of 151 to 154 °C.
As for `O=C(Nc1ccc(Cl)cn1)N[C@H]1CC1c1c(F)cccc1F` (some centres unmarked), the inhibition at 0.1 µg/mL with HIV virus (setting [3]) worked out at 100%; on recombinant HIV-RT (0.1 μg/ml), 98%. Also, the inhibition at 10 µg/mL in the data set with HIV virus (setting [3]) was 100%. For the same molecule, the inhibition at 100 µg/mL in the data set with HIV virus (setting [3]) was 100%; with HIV virus (setting [2]), 3%. Also, the inhibition at 0.001 µg/mL with HIV virus (Human immunodeficiency virus 1, MT4, Test A, 0.001 μg/ml) was found to be 7%; on recombinant HIV-RT (0.001 μg/ml), 55%. Moreover, the values for the inhibition at 0.01 µg/mL with HIV virus (setting [1]) and at recombinant HIV-RT (0.01 μg/ml) were 80% and 89%, respectively. The “% inhibition” value was 8% with HIV virus (0.001 μg/ml); 90% with HIV virus (1 μg/ml); 62% at recombinant HIV-RT (0.001 μg/ml); 93% at recombinant HIV-RT (0.01 μg/ml); 97% on recombinant HIV-RT (0.1 μg/ml); 6% and 16% at recombinant HIV-RT (setting [4]). The inhibition at 1 µg/mL on recombinant HIV-RT (1 μg/ml) came to 100%.
As to `CCOc1ccc(F)c(CCNC(=O)Nc2ccc(Br)cn2)c1Cl`, at recombinant HIV-RT (setting [4]), the “% inhibition” value is 13% and 18%.
On to `COCOc1c(C(C)=O)ccc(F)c1[C@H]1C[C@H]1NC(=O)Nc1ccc(Cl)cn1` (relative stereo) [Example 56, (+,−)-N-(cis-2-(5-Acetyl-2-fluoro-6-methoxymethoxy-phenyl)cyclopropyl)-N′-(5-chloropyrid-2-yl)-urea], for which the IC50 at recombinant HIV-RT was found to be 2.2 ng/mL.
As for `CC(=O)c1cccc([C@H]2C[C@H]2NC(=O)Nc2ccc(Cl)cn2)c1` (racemic) [Example 23, (+,−)-N-(cis-2-(3-Acetylphenyl)-cyclopropyl)-N′-(5-chloropyrid-2-yl)-urea], at recombinant HIV-RT (read-out: IC50 (converted)), the IC50 was 0.0152 µM and 0.0425 µM.
`N#Cc1ccc(NC(=O)N[C@@H]2C[C@@H]2c2c(F)cccc2Cl)nc1` (relative stereo) [Example 33, N-(cis-2-(2-chloro-6-fluorophenyl)-cyclopropyl)-N′-(5-cyanopyrid-2-yl)-urea]: the melting point was 189 °C.
